Reference: patent publication US20260232712A1, “Food for Improving Intestinal Environment” (AJINOMOTO CO., INC., priority 2023, published 2026)

Columns and labels:
C. sporogenes [1] = test: Pure culture growth test of C. sporogenes with added amino acid (OD600); type: cell-based, Clostridium sporogenes; settings: amino acid added at final concentration 4 mM; 1/5 diluted medium; vs control; FIG. 1-2
Description: Amino acids that promote the growth of an IPA-producing bacterium C. sporogenes were narrowed down using a genome-scale metabolic model (GEM) simulation, and then evaluated in a pure culture system. The GEM simulation was performed using COBRA toolbox of MATLAB (registered trademark), and amino acids that affected the growth of C. sporogenes when 20 types of amino acids were removed one by one were selected. Then, the influence of amino acids selected by GEM analysis on the growth of C. sporogenes was investigated in a pure culture system. As C. sporogenes, an in-house strain from Ajinomoto Co., Inc. was used, and as the culture medium, ⅕ diluted enhanced Clostridium medium (Difico, #62620609) was used. Each amino acid was added to the medium to a final concentration of 4 mM, and the growth of C. sporogenes was evaluated using OD600 as an indicator. The control contained no addition of amino acid (culture medium only).

C. sporogenes [2] = test: IPA production by concentrated C. sporogenes bacterial solution with Trp and/or Phe; type: cell-based, Clostridium sporogenes; settings: 37° C., anaerobic, 24 hr; Trp 0.3 mM fixed, Phe 0.3-1.2 mM; FIG. 1-3
Description: To evaluate the influence of Trp and a combination of Trp and Phe on IPA production, pure culture experiments using C. sporogenes were performed. As C. sporogenes, in-house strain of Ajinomoto Co., Inc. was used. First, 800 μL of C. sporogenes glycerol stock was added to 40 mL of reinforced Clostridium medium and cultured under anaerobic conditions at 37° C. for 18 hr. After culturing, centrifugation was performed at 9,100×g for 5 min at 4° C., and the precipitate was collected under anaerobic conditions, washed twice with PBS, and finally suspended in 5 mL of PBS after anaerobic treatment to obtain a concentrated bacterial solution. The influence of the concentrated bacterial solution on IPA production was investigated. […] Furthermore, similar to Experimental Example 1, the influence of Phe/Trp molar ratios between 1 and 10 on IPA production in C. sporogenes was evaluated using GEM analysis.
The IPA concentration in the culture supernatant was analyzed using an LC-MS/MS mass spectrometry system (mass spectrometer: SCIEX API3200, pump: Shimadzu Corporation LC-20AD, autosampler: Shimadzu Corporation SIL-20AC, column oven: Shimadzu Corporation CTO-20AC, system controller: Shimadzu Corporation CBM-20A, degasser: Shimadzu Corporation DGU-20A, nitrogen generator: Airtech AT5NP-25CSL). […]

N[C@@H](Cc1ccccc1)C(=O)O [Phe, L-phenylalanine]
growth of C. sporogenes (OD600) (C. sporogenes [1]): promoted the growth of C. sporogenes | IPA in the culture supernatant (C. sporogenes [2]): no effect
